{"source": "patent US8017350B2", "about": "“Glimepiride- and insulin-induced glycosylphosphatidylinositol-specific phospholipase C regulation” (Sanofi-Aventis Deutschland GmbH, priority 2004, dated 2011)", "target": "PI-PLC, Bacillus cereus (recombinant) (Bacillus cereus, UniProt P14262)", "sequence (P14262 32-329 limits assumed)": "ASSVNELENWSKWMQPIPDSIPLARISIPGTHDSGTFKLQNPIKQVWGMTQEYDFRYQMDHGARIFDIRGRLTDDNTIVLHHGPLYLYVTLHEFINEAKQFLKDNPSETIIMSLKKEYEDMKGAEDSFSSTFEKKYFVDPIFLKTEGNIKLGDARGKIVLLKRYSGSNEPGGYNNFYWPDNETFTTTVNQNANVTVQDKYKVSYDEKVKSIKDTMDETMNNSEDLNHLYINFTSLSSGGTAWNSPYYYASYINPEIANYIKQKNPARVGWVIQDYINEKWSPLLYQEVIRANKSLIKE", "experiment": "Inhibition of PI-PLC (B. cereus), cleavage of GPI-protein, TX-114 partitioning", "type": "biochemical", "from_the_text": "Human recombinant insulin, PIG41 (disclosed in “Frick, W. et al., (1998) Biochemistry 37, 13421-13436”) and glimepiride (trade name Amaryl) were supplied by the medicinal chemistry and synthesis departments of Aventis Pharma Germany (Frankfurt, Germany). 12-((7-nitrobenz-2-oxa-1,3-diazol-4-yl)amino)dodecanoic acid (NBD-FA) was synthesized as described in Müller et al., (1997) Biochem. Biophys. Acta 1347: 23-39. Collagenase (Worthington, CLS, type I, 250 units/mg) was provided by Biochrom (Berlin, Germany). Lipoprotein lipase (LPL, affinity-purified) from bovine milk, phospholipase A2 (honey bee venom), crude porcine pancreatic lipase (PL), recombinant PC- and PI-PLC (Bacillus cereus), crude PLD (cabbage) and defatted BSA (fraction V) were delivered by SigmalAldrich (Deisenhofen, Germany), crude PI-PLC (rat liver) and proteinase inhibitors were purchased from Roche Molecular Biochemicals (Mannheim, Germany). Recombinant GPI-PLC (Trypanosoma brucei) was obtained from Oxford Glycosystems (Oxford, UK). Inhibitors of PLA2 (AACOCF3) and PLC (U 73122) were from Tocris (Avonmouth, UK). Bisbodipy-C11-PC was bought from Molecular Probes (Eugene, Oreg.). Lipids were purchased from Avanti Polar Lipids (Birmingham, Ala.). […]"}
{"smiles": "CCCCCCCCCCCCP1(=O)O[C@@H]2[C@H](O)[C@@H](O)[C@H](O)[C@@H](O)[C@@H]2O1", "note": "(stereo partly shown) [GPI-2350, myo-inositol-1,2-cyclo-dodecylphosphonic acid]", "values": [{"measurement": "inhibition in words", "value": "potent inhibitor"}]}
